Assay results taken from patent US9862693B2, “Compounds and methods of treating cancer” (The Regents of the University of California, priority 2012, dated 2018).
Entries after “also recorded” stand apart in the source; their conditions may differ. Where a name gives a salt, the structure may show the parent alone.

How the values were obtained:
HCC1937 = experiment: MTS cell number assay (CellTiter 96), TNBC cells; format: cell-based; conditions: 1 mM, 72 hours, MTS method
Protocol: (§1) FIGS. 2A-2D. Metformin analogues inhibit growth/survival of triple negative breast cancer cells. MDA-MB-231 (FIG. 2A), HCC38 (FIG. 2B), HCC1937 (FIG. 2C) and HCC1806 (FIG. 2D) cells were cultured in medium containing 1% fetal bovine serum and increasing concentrations of metformin and analogues JD001-JD009 (0.1, 1 and 5 mM). After 3 days, MTS assay was performed. The percentage of surviving cells relative to controls, defined as 100% survival, was determined by the MTS assay.
(§2) Cells were incubated in the presence of vehicle, metformin or metformin analogues for 72 hours in their respective media. After treatment cell numbers were determined with the MTS method using the CellTiter 96 Aqueous Non-Radioactive Cell Proliferation Assay (Promega). Numbers express percentage of vehicle treated controls at 1 mM concentration metformin or metformin analogues (JD001-JD009). TNBC: Triple Negative Breast Cancer Cells, ER+BC: Estrogen receptor positive breast cancer.

MDA-MB-231 = experiment: MTS cell number assay (CellTiter 96), TNBC cells; format: cell-based; conditions: Homo sapiens, 1 mM, 72 hours, MTS method, read-out: Biodata TNBC MDA-MB-231, cell numbers as percentage of vehicle treated controls
Protocol: as §1, §2

MDA-MB-435 = experiment: MTS cell number assay (CellTiter 96), melanoma cells; format: cell-based; conditions: 1 mM, 72 hours, MTS method
Protocol: (§3) FIGS. 3A-3B. Metformin analogues inhibit survival of non-small cell lung cancer (NSCLC) (FIG. 3A) and melanoma cell lines (FIG. 3B). A549 (NSCLC) and MDA-MB-435 (melanoma) cells were cultured in medium containing 1% fetal bovine serum and increasing concentrations of metformin (MET) and analogues JD001-JD007 (0.1, 1 and 5 mM). After 3 days, MTS assay was performed. Survival is expressed as percentage of control defined at 100%.
as §2

HMEC = experiment: MTS cell number assay (CellTiter 96), normal cells; format: cell-based; conditions: Homo sapiens, 1 mM, 72 hours, MTS method, read-out: Biodata Normal HMEC, cell numbers as percentage of vehicle treated controls
Protocol: (§4) FIGS. 4A-4B. Effects of metformin and metformin analogues on normal cells. HMEC (FIG. 4A) and HUVEC (FIG. 4B) cells were plated in special media. After 24 hours, cells were treated with increasing concentrations of metformin and analogues JD001-JD009 (0.1, 1 and 5 mM). After 3 days, MTS assay was performed. Survival is expressed as percentage of vehicle treated control. Data represents at least two experiments.
(§5) The effects of compounds described herein (including embodiments) (e.g. metformin analogues) were determined on two types of normal nonmalignant human cells, human umbilical vein endothelial cells (HUVEC) and human mammary epithelial cells (HMEC). There were no significant biologic effects noted on exposure to the metformin analogues.
as §2

HUVEC = experiment: MTS cell number assay (CellTiter 96), normal cells; format: cell-based; conditions: Homo sapiens, 1 mM, 72 hours, MTS method, read-out: Biodata Normal HUVEC, cell numbers as percentage of vehicle treated controls
Protocol: as §4, §5, §2

MCF7 = experiment: MTS cell number assay (CellTiter 96), ER+ breast cancer cells; format: cell-based; conditions: Homo sapiens, 1 mM, 72 hours, MTS method, read-out: ER+ BC MCF7, cell numbers as percentage of vehicle treated controls
Protocol: FIG. 1. Metformin analogues inhibit growth/survival of ER+ MCF7 breast cancer cells. MCF7 cells were cultured in medium containing different concentrations of metformin and analogues (0.1, 1 and 5 mM). After 3 days, the percentage of surviving cells relative to controls, defined as 100% survival, was determined by the MTS assay. Data represents three independent experiments.
Compounds described herein (e.g. metformin derivatives and/or analogues) were tested in human MCF-7 breast cancer cells, a standard ERalpha-positive model of breast malignancy (FIG. 1), and in four different cell lines classified as TNBC, including MDA-MB-231, HCC1937, HCC38 and HCC1806 (FIGS. 2A-2D). […] Experiments were also performed in: 1) a non-small cell lung cancer cell line that is known to be resistant to standard chemotherapy (A549); and 2) a melanoma-like cell model (MDA-MB-435). To find if analogues have effects on normal cells compounds were tested in two different types of cells, human umbilical vein endothelial cells (HUVEC) and human mammary epithelial cells (HMEC). The effects of metformin (MET) were compared with compounds JD001-JD009.
as §2

PANC-1 cells = experiment: Pancreatic cancer cell proliferation in vitro (cell counts); format: cell-based, human; conditions: 0.01, 0.1 and 1 mM, 72 hrs, 1% FBS, P<0.01, hydrochloride
Protocol: FIG. 5. […] Cells were counted and plated. At 24 hrs after plating, cells were treated with metformin and JD003 at 0.01 mM, 0.1 mM, and 1 mM concentrations using medium with 1% FBS. After 72 hrs, cell proliferation was quantitated based on cell counts. Experiments were done 3-times, with results expressed as percent control (mean±SE).
We hypothesize that metformin analogs can be prepared with enhanced anticancer activity and minimal non-target toxicity. […] Human pancreatic cancer cells PANC-1, were grown in DMEM with 2 mM glutamine, 1 mM sodium pyruvate, 100 units/mL penicillin, 100 μg/mL streptomycin and 10% FBS at 37 C in a humidified atmosphere with 10% CO2. Then, effects of treatment with metformin or analog JD003 on cell proliferation in vitro were tested. […] To find if analogs may have deleterious effects on normal human cells, we compared the cellular activity of metformin with that of analogs JD003 and JD004 using a pair of human breast epithelial cells. These included human mammary epithelial cells (HMEC) and MCF-7 tumor cells (MCF-7). […] In contrast, minimal antiproliferative effects are detected in nonmalignant human epithelial cells.

A549 = experiment: MTS cell number assay (CellTiter 96), NSCLC cells; format: cell-based; conditions: Homo sapiens, 1 mM, 72 hours, MTS method, read-out: Biodata extra A549, cell numbers as percentage of vehicle treated controls
Protocol: as §3, §2

MCF-7 cells = experiment: Cell proliferation ELISA, BrdU colorimetric kit; format: cell-based, human; conditions: 0.1 mM and 1 mM, BrdU incorporation, 1% FBS, P<0.01; hydrochloride
Protocol: FIGS. 6A-6C. […] Proliferation was assessed using cell proliferation ELISA, BrdU colorimetric kit (Roche). Cells were counted using a hemocytometer and plated. After 24 hrs, cells were treated with metformin and analogs JD003 and JD004 at 0.1 mM and 1 mM doses using phenol-red free medium with 1% FBS. After 48 hr, BrDU labeling solution was added and incubated for 24 h. Proliferation was assessed using BrDU incorporation by ELISA during DNA synthesis in proliferating cells. Data shown as % control (mean±SE) (n=3 experiments).
We hypothesize that metformin analogs can be prepared with enhanced anticancer activity and minimal non-target toxicity. […] Human pancreatic cancer cells PANC-1, were grown in DMEM with 2 mM glutamine, 1 mM sodium pyruvate, 100 units/mL penicillin, 100 μg/mL streptomycin and 10% FBS at 37 C in a humidified atmosphere with 10% CO2. Then, effects of treatment with metformin or analog JD003 on cell proliferation in vitro were tested. […] In contrast, minimal antiproliferative effects are detected in nonmalignant human epithelial cells. […]
Cell proliferation screening assays were done using cell proliferation ELISA, BrdU colorimetric kit (Roche). Cells were counted using a hemocytometer and plated in 96-well plates. […] Cell proliferation were quantitated based on measures of BrDU incorporation (by ELISA) during DNA synthesis in proliferating cells. […] Results were expressed as mean±SE. […]

[1] = system: triple-negative breast cancer cell lines; conditions: literature refs (2,3); cited from earlier work
HCC38 = experiment: MTS cell number assay (CellTiter 96), TNBC cells; format: cell-based; conditions: 1 mM, 72 hours, MTS method
Protocol: as §1, §2

HCC1806 = experiment: MTS cell number assay (CellTiter 96), TNBC cells; format: cell-based; conditions: 1 mM, 72 hours, MTS method
Protocol: as §1, §2

[2] = system: MIAPaCa-2 and PANC-1 cells xenografted in nude mice; conditions: reported; cited from earlier work

Row | SMILES | Biodata TNBC HCC1937, cell numbers as percentage of vehicle treated controls (HCC1937) | viability at 1000 µM (MDA-MB-231) [%] | Biodata extra MDA-MB-435, cell numbers as percentage of vehicle treated controls (MDA-MB-435) | viability at 1000 µM (HMEC) [%] | viability at 1000 µM (HUVEC) [%] | viability at 1000 µM (MCF7) [%] | Inhibition of pancreatic cancer cell proliferation compared with metformin (PANC-1 cells) | viability at 1000 µM (A549) [%] | Blocking proliferation of MCF-7 cells compared with metformin (MCF-7 cells) | Antitumor activity against triple-negative breast cancer cell lines [1] | Biodata TNBC HCC38, cell numbers as percentage of vehicle treated controls (HCC38) | Biodata TNBC HCC1806, cell numbers as percentage of vehicle treated controls (HCC1806) | Growth of xenografted pancreatic cancer cells [2]
1 | N=C(NC(=N)N1CCOCC1)N1CCOCC1 [JD003, N-(Imino(morpholino)methyl)morpholine-4-carboximidamide hydrochloride] | 37.8 percentage of vehicle treated controls | 93.2 | 50.4 percentage of vehicle treated controls | 107 | 86.7 | 61.3 | significantly greater inhibition of pancreatic cancer cell proliferation in vitro than parent compound metformin; also recorded: shows promise as a congener with more potent antitumor activity | 98 | more effective in blocking proliferation of MCF-7 cells; also recorded: enhanced antiproliferative activity in breast cancer cells as compared to metformin |  |  |  | 
2 | CN(C)C(=N)NC(=N)N [Metformin (000), 1,1-dimethyl-biguanide hydrochloride, reference compound] | 92.9 percentage of vehicle treated controls | 110 | 77.7 percentage of vehicle treated controls | 99.8 | 83.9 | 105 |  | 72.2 |  | only at high millimolar concentrations | 92.5 percentage of vehicle treated controls | 90.2 percentage of vehicle treated controls | significantly decrease growth
